In brackets after ≈: the same amount, converted by molar mass. Where two headings read alike, the source gives them in different places.
What was measured:
[1] = test system: Saccharomyces cerevisiae BY4741/YEplac195-PDR5; experiment: microbe, parasite or virus in culture; format: cell-based; settings: Saccharomyces cerevisiae, 24 h, read-out: MIC, Yeast, BY4741/ PDR5
Text: (§1) The microorganisms used for the susceptibility tests were the bacteria Escherichia coli JM101 and Staphylococcus aureus BHI, and the yeast Saccharomyces cerevisiae strains BY4741 (MAT a his3Δ1 leu2Δ0 met15Δ0 ura3Δ0 (EUROSCARF)) carrying YEplac195 (from EUROSCARF) or YEPlac195-PDR5 (provided by Ayse Banu Demir, Izmir University of Economics, Turkey) plasmids.
(§2) Bacterial strains were usually maintained and grown in an LB medium (0.5% (w/v) yeast extract, 1% (w/v) bactotryptone, and 1% (w/v) NaCl) at 37 °C. For MIC (minimal inhibitory concentration) and MMC (minimal microbicidal concentration) assays, and for the determination of synergies, overnight growth was carried out in 2% (w/v) bactopeptone (BP), and then the cultures were diluted and incubated for several hours in 2% (w/v) BP for ensuring logarithmic growth. Yeast strains were grown in an SC-ura medium (0.17% (w/v) yeast nitrogen base without amino acids and ammonium sulphate, 0.2% (w/v) drop-out without uracil, 0.5% (w/v) (NH4)2SO4, and 2% (w/v) glucose) at 30 °C. Liquid cultures were incubated with shaking (200 rpm). Solid media also contained 2% (w/v) agar.
(§3) The determination of the MIC for yeast strains was carried out following a similar procedure to that of the polyamines and antifungal reference agents: Serial dilutions of each one in phosphate buffer (20 mM, pH 7.4, 0.5 mL) were prepared and mixed with a suspension of yeast cells (OD600 0.04 in SC-ura 2X (VWR, Atlanta, GA, USA), 0.5 mL). […] Experiments were carried out at least three times in all cases.

[2] = test system: Saccharomyces cerevisiae BY4741/YEplac195; experiment: microbe, parasite or virus in culture; format: cell-based; settings: Saccharomyces cerevisiae, 24 h, read-out: MIC, Yeast, BY4741/ YEplac195
Text: as §1, §2, §3

[3] = test system: Staphylococcus aureus BHI; experiment: MIC, microdilution in culture medium, S. aureus; format: cell-based; settings: Staphylococcus aureus, 20 h, read-out: MIC, Bacteria, S. aureus BHI
Text: as §1, §2
(§4) For the analysis of the antimicrobial activity, the strategies and indications of Cushnie et al. were considered. The standardised method of microdilution in a culture medium was followed to determine the MIC [55]. In bacterial strains, serial dilutions of the compounds to be tested and the control antibiotics were prepared in phosphate buffer (20 mM, pH 7.4, 0.5 mL) and were mixed with a suspension of bacterial cells in a logarithmic growth phase (in 1% BP, 0.5 mL). The final OD600 of the whole solutions were 0.004 and 0.008 for E. coli and S. aureus cultures, respectively. After 20 h of incubation at 37 °C with shaking, the MIC was determined as the lowest concentration of each compound in which no visible bacterial growth was observed.

[4] = test system: Escherichia coli JM101; experiment: MIC, microdilution in culture medium, E. coli; format: cell-based; settings: Escherichia coli, read-out: MIC, Bacteria, E. coli JM101
Text: as §1, §2, §4

[5] = Potentiometric titrations in water (protonation constants); format: physicochemical; settings: for log β (cumulative protonation constant): calculated as log β = ∑j log KHjL; for n, average number of positive charges at pH 7.4: calculated from protonation constants
Experimental: The potentiometric titrations were carried out at 298.1 ± 0.1 K using NaCl 0.15 M as a supporting electrolyte. The experimental procedure (burette, potentiometer, cell, stirrer, microcomputer, etc.) has been fully described elsewhere. The acquisition of the EMF data was performed with the computer program PASAT [50]. The reference electrode was a Ag/AgCl electrode in a saturated KCl solution. The glass electrode was calibrated as a hydrogen-ion concentration probe via the titration of previously standardised amounts of HCl with CO2-free NaOH solutions and the equivalent point determined using the Gran method, which provides the standard potential, E^θ′, and the ionic product of water (pKw = 13.73(1)).
The computer program […] was used to calculate the protonation constants. The pH range investigated was 2.5–11.0, and the concentration of the ligands ranged from 5 × 10^−4 to 5 × 10^−[…]. The different titration curves for each system (at least two) were treated either as a single set or as separated curves without significant variations in the values of the stability constants. Finally, the sets of data were merged and treated simultaneously to give the final stability constants.

[6] = Cytotoxicity, flow cytometry viability assay with propidium iodide; format: cell-based, human; settings: human, Jurkat cells (human lymphocytic leukaemia, ATCC TIB-152), 24 h treatment, average of three experiments, read-out: IC50, cytotoxicity on the human Jurkat cell line
Experimental: The cytotoxicity of the compounds was assessed via flow cytometry with a viability assay using propidium iodide (PI), a DNA-binding fluorescent probe not permeant to live cells, which is commonly used to detect dead cells in a population. The human lymphocytic leukaemia Jurkat cell line (ATCC TIB-152) was obtained from the American Type Cell Culture (Sigma-Aldrich) and grown in suspension in an RPMI 1640 medium (Thermo Fisher Scientific, Waltham, MA, USA) supplemented with L-glutamine, antibiotics, and 10% heat-inactivated foetal calf serum (FCS, Thermo Fisher Scientific, Waltham, MA, USA). For the viability assay, cells were seeded in plastic 96-well plates at […] in an RPMI 1640 medium supplemented with 5% FCS. The cells were treated for 24 h with a range of concentrations of the test compounds or with the same volume of phosphate buffer (PBS) in control wells. After incubation, cell suspensions were washed, resuspended in 400 μL fresh medium, and incubated for 5 min at room temperature in the dark with 3.75 μM PI (Sigma-Aldrich). Cell viability was determined via flow cytometry using a Gallios flow cytometer (Beckman Coulter). PI fluorescence was excited with an argon-ion laser at 488 nm and collected through a 620/630 nm band-pass emission. Cellular events were discriminated from debris using forward scatter (FS) and side scatter (SS) signals. Cell aggregates were excluded from analysis based on FS-integral and FS-peak. The gates applied for population discrimination were set manually based on control samples. For each sample, 10,000 events were collected. For further analysis, the cytometric data were exported to Kaluza 2.1 software (Beckman Coulter, Brea, CA, USA). Dead cells were identified and quantified as PI-positive events. The cytotoxic potency of test compounds was quantified using their IC50 values, i.e., the compound concentration at which cell viability is inhibited by 50%, as calculated via curve fitting and determined with the correlation coefficient (R2) using GraphPad Prism 9.0 software. Experiments were carried out in triplicate.

[7] = test system: E. coli JM101; experiment: Minimal bactericidal concentration, E. coli; format: cell-based, Escherichia coli; settings: Escherichia coli, JM101; overnight incubation, plating on LB; bacteriostatic if growth at 4 times the MIC
Experimental: (§5) Once the MIC was known, the samples were prepared as described in the previous section with polyamine concentrations corresponding to the MIC and half, double, and four times its value. After overnight incubation with the microorganisms, 30 μL of a ten-fold dilution of each one was spread in LB (in the case of bacterial strains) or SC-ura (for yeast strains) plates. They were incubated for 20 h at 37 °C (bacteria) or 48 h at 30 °C (yeasts), and the level of growth was determined. […] Experiments were carried out at least three times.

[8] = test system: Yeast (S. cerevisiae strains); experiment: MIC, yeast (strain not specified); format: cell-based, Saccharomyces cerevisiae; settings: Saccharomyces cerevisiae; yeast strain not specified (Tables 5 and 10); read-out: MIC Yeast
Experimental: as §3

[9] = test system: S. aureus BHI; experiment: Minimal bactericidal concentration, S. aureus; format: cell-based, Staphylococcus aureus; settings: Staphylococcus aureus; overnight incubation, plating on LB
Experimental: as §5

[10] = 30 °C, average of at least three experiments
[11] = 37 °C, average of at least three experiments
[12] = JM101, 20 h, 37 °C, average of at least three experiments
[13] = 298 K, 0.15 mol/dm^3 NaCl, error in last figure in parentheses

For `NCCCNCCN(CCNCCCN)CCNCCCN` [Compound 4b], which MIC [1] is on record?
The MIC was > 400 µg/mL.

What about the MIC [2, 10] of the same molecule?
Its MIC is > 400 µg/mL.

What about the MIC [3, 11] of the same molecule?
Its MIC is 250 µg/mL.

And the MIC [4, 12]?
Its MIC is 400 µg/mL.

For `c1cc2c(cc1CNCCCNCCCCNCCCNCc1ccc3c(c1)OCO3)OCO2` [Compound 2a, N^1,N^1′-(butane-1,4-diyl)bis(N^3-(benzo[d][1,3]dioxol-5-ylmethyl)propane-1,3-diamine)], which “Stepwise protonation constant (log K), H2L + H ⇄ H3L” value [5, 13] is on record?
Its value is 8.245 (7).

What about the “Stepwise protonation constant (log K), H3L + H ⇄ H4L” value [5, 13] of the same molecule?
Its value is 7.41 (1).

What about the “Stepwise protonation constant (log K), L + H ⇄ HL” value [5, 13] of the same molecule?
The value was 10.81 (3).

And the “Stepwise protonation constant (log K), LH + H ⇄ H2L” value [5, 13]?
Its value is 9.481 (8).

And the “log β (cumulative protonation constant)” value ([5]; 298 K, 0.15 mol/dm^3 NaCl)?
Its value is 35.94.

And the “n, average number of positive charges at pH 7.4” value [5]?
The value was 3.4.

And the IC50 at 24 h [6]?
The IC50 at 24 h was 8.8 µg/mL (≈ 18.7 µM).

What about the MIC [1] of the same molecule?
Its MIC is 250 µg/mL.

And the MIC [2, 10]?
The MIC was 250 µg/mL.

What about the MBC [7] of the same molecule?
Its MBC is 20 µg/mL (≈ 42.5 µM).

And the MIC [8]?
Its MIC is 250 µg/mL (≈ 531 µM).

What about the MIC [3, 11] of the same molecule?
The MIC was 50 µg/mL.

And the MBC [9]?
Its MBC is 100 µg/mL (≈ 212 µM).

What about the MIC [4, 12] of the same molecule?
The MIC was 10 µg/mL.

For `O=C(O)c1cn(C2CC2)c2cc(N3CCNCC3)c(F)cc2c1=O` [Ciprofloxacin, reference compound], which MIC [3, 11] is on record?
Its MIC is 0.1 µg/mL.

What about the MIC [4, 12] of the same molecule?
The MIC was 0.04 µg/mL.

What does the source list for `NCCN(CCN)CCN` [Compound 3b, reference compound]?
MIC [1]: > 400 µg/mL; MIC [2, 10]: > 400 µg/mL; MIC [3, 11]: 400 µg/mL; MIC [4, 12]: 250 µg/mL

For `c1cc2c(cc1CNCCN(CCNCc1ccc3c(c1)OCO3)CCNCc1ccc3c(c1)OCO3)OCO2` [Compound 3a, N^1-(benzo[d][1,3]dioxol-5-ylmethyl)-N^2,N^2-bis(2-((benzo[d][1,3]dioxol-5-ylmethyl)amino)ethyl)ethane-1,2-diamine], which “Stepwise protonation constant (log K), H2L + H ⇄ H3L” value [5, 13] is on record?
The value was 6.93 (3).

What about the “Stepwise protonation constant (log K), L + H ⇄ HL” value [5, 13] of the same molecule?
Its value is 9.12 (2).

And the “Stepwise protonation constant (log K), LH + H ⇄ H2L” value [5, 13]?
Its value is 8.35 (3).

And the “n, average number of positive charges at pH 7.4” value [5]?
Its value is 2.1.

And the IC50 at 24 h [6]?
Its IC50 at 24 h is 1.86 µg/mL (≈ 3.39 µM).

And the MIC [1]?
Its MIC is > 400 µg/mL.

What about the MIC [2, 10] of the same molecule?
The MIC was > 400 µg/mL.

What about the MBC [7] of the same molecule?
Its MBC is 50 µg/mL (≈ 91.1 µM).

What about the MIC [8] of the same molecule?
Its MIC is > 400 µg/mL.

And the MIC [3, 11]?
Its MIC is 15 µg/mL.

And the MBC [9]?
Its MBC is 30 µg/mL (≈ 54.7 µM).

What about the MIC [4, 12] of the same molecule?
The MIC was 25 µg/mL.

Which results are given for `c1cc2c(cc1CNCCCCNCCCNCc1ccc3c(c1)OCO3)OCO2` [Compound 1a, N^1-(benzo[d][1,3]dioxol-5-ylmethyl)-N^4-(3-((benzo[d][1,3]dioxol-5-ylmethyl)amino)propyl)butane-1,4-diamine]?
Stepwise protonation constant (log K), H2L + H ⇄ H3L [5, 13]: 7.699 (2); Stepwise protonation constant (log K), L + H ⇄ HL [5, 13]: 10.433 (2); Stepwise protonation constant (log K), LH + H ⇄ H2L [5, 13]: 8.964 (2); log β (cumulative protonation constant) ([5]; 298 K, 0.15 mol/dm^3 NaCl): 27.09; n, average number of positive charges at pH 7.4 [5]: 2.7; IC50 at 24 h [6]: 11.4 µg/mL (≈ 27.6 µM); MIC [1]: > 400 µg/mL; MIC [2, 10]: > 400 µg/mL; MBC [7]: 100 µg/mL (≈ 242 µM); MIC [8]: > 400 µg/mL; MIC [3, 11]: 150 µg/mL; MIC [4, 12]: 50 µg/mL

Which results are given for `NCCCNCCCCNCCCN` [Compound 2b, spermine, reference compound]?
MIC [1]: > 400 µg/mL; MIC [2]: > 400 µg/mL; MIC [3, 11]: 400 µg/mL; MIC [4, 12]: 100 µg/mL

For `CNC(C)C1CCC(N)C(OC2C(N)CC(N)C(OC3OCC(C)(O)C(NC)C3O)C2O)O1` (stereo not shown) [Gentamicin, reference compound], which MIC [3, 11] is on record?
Its MIC is 0.04 µg/mL.

And the MIC [4, 12]?
The MIC was 0.02 µg/mL.

Which results are given for `C[C@@H]1C[C@@H]([C@H](O)CC2CC(=O)NC(=O)C2)C(=O)[C@@H](C)C1` [Cycloheximide, reference compound]?
MIC [1]: 0.5 µg/mL; MIC [2]: 0.5 µg/mL

Which results are given for `c1ccc2c(c1)OCO2` [1,3-Benzodioxole, reference compound]?
MIC [1]: > 500 µg/mL; MIC [2]: > 500 µg/mL; MIC [3]: > 500 µg/mL; MIC ([4]; JM101, 20 h): > 500 µg/mL

For `NCCCCNCCCN` [Compound 1b, spermidine, reference compound], which MIC [1] is on record?
Its MIC is > 400 µg/mL.

What about the MIC [2, 10] of the same molecule?
The MIC was > 400 µg/mL.

What about the MIC [3, 11] of the same molecule?
The MIC was > 400 µg/mL.

What about the MIC [4, 12] of the same molecule?
The MIC was 400 µg/mL.
